Laboratory results as given in patent publication US8058475B2, “Substituted cyclohexylmethyl compounds” (Gruenenthal GmbH, priority 2005, dated 2011).
Like-named read-outs stand apart in the source and are kept apart here.

Target: human μ-opiate receptor (Homo sapiens, UniProt P35372)
Assay: Affinity for the human μ-opiate receptor ([3H]-naloxone displacement, SPA, CHO-K1 membrane preparation)
Type: binding
Details: for inhibition at 1 µM: read-out: μ-Opioid receptor, % inhibition [1 μM]; for Ki: read-out: μ-Opioid receptor, Ki
[1] = 1 μM test substance, inhibition of specific [3H]-naloxone binding

Sequence of human μ-opiate receptor (P35372 whole entry): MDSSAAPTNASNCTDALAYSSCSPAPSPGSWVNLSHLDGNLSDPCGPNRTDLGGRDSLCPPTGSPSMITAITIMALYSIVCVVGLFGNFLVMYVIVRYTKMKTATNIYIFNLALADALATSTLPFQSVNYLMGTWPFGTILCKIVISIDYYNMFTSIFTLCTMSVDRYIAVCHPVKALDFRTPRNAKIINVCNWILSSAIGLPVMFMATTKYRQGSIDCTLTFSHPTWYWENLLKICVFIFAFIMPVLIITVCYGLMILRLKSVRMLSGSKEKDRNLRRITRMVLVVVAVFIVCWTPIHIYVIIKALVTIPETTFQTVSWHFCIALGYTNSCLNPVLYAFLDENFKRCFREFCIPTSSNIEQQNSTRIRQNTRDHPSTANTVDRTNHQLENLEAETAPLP

Compound | inhibition at 1 µM [%] | Ki [nM] | μ-Opioid receptor, % inhibition [1 μM] [%] | inhibition at 1 µM [1] [%]
CN(C)C(c1ccccc1)C1CCC(NC(=O)C23CC4CC(CC(C4)C2)C3)CC1 (centres unmarked) [compound 236, adamantane-1-carboxylic acid [4-(dimethylamino-phenyl-methyl)-cyclohexyl]-amide] | 83 | 63 | – | –
CN(C)C(c1ccccc1)C1CCC(CCNC(=O)c2cccnc2Sc2ccc(Cl)cc2)CC1 (single isomer, unassigned) [compound 471, 2-(4-chloro-phenylsulfanyl)-N-{2-[4-(dimethylamino-phenyl-methyl)-cyclohexyl]-ethyl}-nicotinamide] | – | 87 | 82 | –
COc1ccc(C(=O)NC2CCC(C(c3ccccc3)N(C)C)CC2)c(OC)c1 (centres unmarked) [compound 216, N-[4-(dimethylamino-phenyl-methyl)-cyclohexyl]-2,4-dimethoxy-benzamide] | 90 | 56 | – | –
Cc1cc(C(=O)NCC2CCC(C(c3cccs3)N(C)C)CC2)n(C(C)(C)C)n1 (centres unmarked) [compound 366, 2-tert-butyl-5-methyl-2H-pyrazole-3-carboxylic acid [4-(dimethylamino-thiophen-2-yl-methyl)-cyclohexylmethyl]-amide] | 85 | 56 | – | –
COc1cccc(CC(=O)NCC2CCC(C(c3ccc(Cl)cc3)N(C)C)CC2)c1 (centres unmarked) [compound 320, N-{4-[(4-chloro-phenyl)-dimethylamino-methyl]-cyclohexylmethyl}-2-(3-methoxy-phenyl)-acetamide] | 95 | 28 | – | –
CN(C)C(c1ccc(Cl)cc1)C1CCC(CNC(=O)c2cccc(C(F)(F)F)c2)CC1 (centres unmarked) [compound 369, N-{4-[(4-chloro-phenyl)-dimethylamino-methyl]-cyclohexylmethyl}-3-trifluoromethyl-benzamide] | 84 | 68 | – | –
CN(C)C(c1ccccc1)C1CCC(CCNC(=O)c2ccccc2F)CC1 (centres unmarked) [compound 410, N-{2-[4-(dimethylamino-phenyl-methyl)-cyclohexyl]-ethyl}-2-fluoro-benzamide] | 88 | 5.8 | – | –
Cc1ccc(Oc2ncccc2C(=O)NCC2CCC(C(c3cccc(F)c3)N(C)C)CC2)cc1 (centres unmarked) [compound 337, N-{4-[dimethylamino-(3-fluoro-phenyl)-methyl]-cyclohexylmethyl}-2-p-tolyloxy-nicotinamide] | 92 | – | – | –
CN(C)C(c1cccs1)C1CCC(NC(=O)c2ccc(F)c(C(F)(F)F)c2)CC1 (centres unmarked) [compound 192, N-[4-(dimethylamino-thiophen-2-yl-methyl)-cyclohexyl]-4-fluoro-3-trifluoromethyl-benzamide] | 98 | 18 | – | –
CCC(C)C(=O)NCC1CCC(C(c2cccc(F)c2)N(C)C)CC1 (single isomer, unassigned) [compound 342, N-{4-[dimethylamino-(3-fluoro-phenyl)-methyl]-cyclohexylmethyl}-2-methyl-butyramide] | 90 | 28 | – | –
CN(C)C(c1cccc(F)c1)C1CCC(CNC(=O)Cc2ccccc2)CC1 (single isomer, unassigned) [compound 348, N-{4-[dimethylamino-(3-fluoro-phenyl)-methyl]-cyclohexylmethyl}-2-phenyl-acetamide] | – | 30 | 89 | –
CN(C)C(c1cccc(F)c1)C1CCC(CNC(=O)c2cc(Cl)cc(Cl)c2)CC1 (centres unmarked) [compound 371, 3,5-dichloro-N-{4-[dimethylamino-(3-fluoro-phenyl)-methyl]-cyclohexylmethyl}-benzamide] | 84 | 130 | – | –
CN(C)C(CCc1ccccc1)C1CCC(NC(=O)c2ccc(F)cc2)CC1 (centres unmarked) [compound 258, N-[4-(1-dimethylamino-3-phenyl-propyl)-cyclohexyl]-4-fluoro-benzamide] | 79 | 68 | – | –
CN(C)C(c1ccccc1)C1CCC(NC(=O)c2cccs2)CC1 (single isomer, unassigned) [compound 245, thiophene-2-carboxylic acid [4-(dimethylamino-phenyl-methyl)-cyclohexyl]-amide] | 82 | 66 | – | –
CN(C)C(c1cccc(F)c1)C1CCC(CNC(=O)Cc2cccs2)CC1 (centres unmarked) [compound 343, N-{4-[dimethylamino-(3-fluoro-phenyl)-methyl]-cyclohexylmethyl}-2-thiophen-2-yl-acetamide] | 90 | – | – | –
CN(C)C(c1cccs1)C1CCC(CNC(=O)Cc2cccs2)CC1 (centres unmarked) [compound 291, N-[4-(dimethylamino-thiophen-2-yl-methyl)-cyclohexylmethyl]-2-thiophen-2-yl-acetamide] | 102 | – | – | –
Cc1oc(-c2ccccc2)cc1C(=O)NCC1CCC(C(c2ccc(Cl)cc2)N(C)C)CC1 (centres unmarked) [compound 330, 2-methyl-5-phenyl-furan-3-carboxylic acid {4-[(4-chloro-phenyl)-dimethylamino-methyl]-cyclohexylmethyl}-amide] | 94 | 39 | – | –
CCCCCCC1(O)CCC(C(c2ccc(Cl)cc2)N(C)C)CC1 (centres unmarked) [compound 168, 4-[(4-chloro-phenyl)-dimethylamino-methyl]-1-hexyl-cyclohexanol] | – | – | – | 58
COC(=O)C(Cc1c[nH]c2ccccc12)NC1CCC(C(c2ccccc2)N(C)C)CC1 (single isomer, unassigned) [compound 174, methyl 2-(4-((dimethylamino)(phenyl)methyl)cyclohexylamino)-3-(1H-indol-3-yl)propanoate] | – | 4.9 | – | 95
CN(C)C(c1cccc(F)c1)C1CCC(CCNC(=O)c2c(F)cccc2F)CC1 (centres unmarked) [compound 462, N-(2-{4-[dimethylamino-(3-fluoro-phenyl)-methyl]-cyclohexyl}-ethyl)-2,6-difluoro-benzamide] | 91 | 55 | – | –
Cc1ccccc1C(=O)NCC1CCC(C(c2ccccc2)N(C)C)CC1 (single isomer, unassigned) [compound 317, N-[4-(dimethylamino-phenyl-methyl)-cyclohexylmethyl]-2-methyl-benzamide] | 95 | 29 | – | –
CN(C)C(c1ccccc1)C1CCC(CCNC(=O)c2ccc3snnc3c2)CC1 (centres unmarked) [compound 472, benzo[1,2,3]thiadiazole-5-carboxylic acid {2-[4-(dimethylamino-phenyl-methyl)-cyclohexyl]-ethyl}-amide] | 85 | – | – | –
Cc1ccccc1C(=O)NCCC1CCC(C(c2ccc(Cl)cc2)N(C)C)CC1 (centres unmarked) [compound 419, N-(2-{4-[(4-chloro-phenyl)-dimethylamino-methyl]-cyclohexyl}-ethyl)-2-methyl-benzamide] | 86 | 32 | – | –
COc1cccc(OC)c1C(=O)NC1CCC(C(c2ccccc2)N(C)C)CC1 (centres unmarked) [compound 287, N-[4-(dimethylamino-phenyl-methyl)-cyclohexyl]-2,6-dimethoxy-benzamide] | 71 | 150 | – | –
CN(C)C(c1cccs1)C1CCC(CNC(=O)c2c(F)cccc2F)CC1 (centres unmarked) [compound 313, N-[4-(dimethylamino-thiophen-2-yl-methyl)-cyclohexylmethyl]-2,6-difluoro-benzamide] | 97 | 35 | – | –
CN(C)C(c1ccccc1)C1CCC(NC(=O)Cc2cccs2)CC1 (centres unmarked) [compound 255, N-[4-(dimethylamino-phenyl-methyl)-cyclohexyl]-2-thiophen-2-yl-acetamide] | 80 | 46 | – | –
